Measurements: patent US20240268388A1, “AGRICULTURAL AND HORTICULTURAL FUNGICIDAL COMPOSITION” (NIPPON SODA CO., LTD., priority 2021, published 2024)
Read-outs that look alike come from different tables or passages of the source.

What was measured:
[1] = tested on: wheat leaf blight pathogen (Septoria tritici); assay: Fungicidal test for wheat leaf blight (microplate, turbidity at 405 nm); type: cell-based; details: for inhibition at 6.3 ppm / inhibition at 12.5 ppm / inhibition at 25 ppm / inhibition at 50 ppm / inhibition at 100 ppm: component (I) alone
Experimental: Compounds of component (I) and component (II) were dissolved in dimethyl sulfoxide at 10,000 ppm and diluted with water to the prescribed concentration to prepare a chemical agent solution. A mixture of the prescribed concentration of the chemical agent solution, wheat leaf blight pathogen (Septoria tritici) conidia, and malt extract was prepared on a microplate and incubated at 20° C. in the dark for 3 days. The turbidity at a wavelength of 405 nm was measured with a microplate reader, and the growth of wheat leaf blight pathogen was compared with that of no treatment control to determine the growth inhibition rate. The results are shown in Tables 2 to 7, along with the expected values calculated as below.
Each expected value was calculated from the fungicidal efficacy of a single application of the compound of component (I) and the fungicidal efficacy of a single application of compound of component (II) by using Colby's equation (S. R. Colby, Calculating synergistic and antagonistic responses of herbicide combinations, Weeds, 15, 20-22 pp (1967)).
[formula] • where E represents the expected value of the growth inhibition rate (%) for the composition containing component (I) and component (II), M represents the growth inhibition rate (%) when the component (I) is used alone, and N represents the growth inhibition rate (%) when the component (II) is used alone. When the measured growth inhibition rate (%) for the composition containing component (I) and component (II) is greater than the expected value E, the composition containing components (I) and component (II) should exert a synergistic effect.

[2] = tested on: cucumber anthracnose pathogen (Colletotrichum lagenarium); assay: Fungicidal test for cucumber anthracnose (microplate, turbidity at 405 nm); type: cell-based; details: for inhibition at 0.025 ppm / inhibition at 0.1 ppm / inhibition at 0.4 ppm: Colletotrichum orbiculare, read-out: growth inhibition rate
Experimental: The compounds were dissolved in dimethyl sulfoxide to prepare a chemical agent solution.
A mixture of the prescribed concentration of the chemical agent solution, cucumber anthracnose pathogen (Colletotrichum lagenarium) conidia, and Vogel medium was prepared on a microplate and incubated at 20° C. in the dark for 7 days.
Each expected value was calculated using Colby's equation:
[formula] • where E represents the expected value of the growth inhibition rate (%), M represents the growth inhibition rate (%) when the component (I) is used alone, and N represents the growth inhibition rate (%) when the component (II) is used alone.

[3] = tested on: soybean rust pathogen (Phakopsora pachyrhizi); assay: Soybean rust control test (leaf discs); type: in vivo
Experimental: Compounds of component (I) and component (II) were dissolved in dimethyl sulfoxide and diluted with water to the prescribed concentration to prepare a chemical agent solution. A mixture of the prescribed concentration of the chemical agent solution and sterile water was prepared on a microplate, and leaf discs cut from soybean leaves were floated on the microplate. Uredospores of soybean rust pathogen (Phakopsora pachyrhizi) were inoculated and incubated at 25° C. for 9 days. The area percentage of lesions was determined by observing uredospore-forming lesions on the leaf discs, and the control value was calculated. The control value was calculated by the following formula:
Control value (%)=100−{Area percentage of lesions in treatment plot/Area percentage of lesions in untreatment plot}×100.
The results are shown in Tables 8 to 18, along with the expected values calculated as below. Each expected values was calculated from the fungicidal efficacy of a single application of compound of component (I) and the fungicidal efficacy of a single application of compound of component (II) by using Colby's equation:
[formula] • where E represents the expected value of the control value for the composition containing component (I) and component (II), M represents the control value (%) when the component (I) is used alone, and N represents the control value (%) when the component (II) is used alone. When the measured control value for the composition containing component (I) and component (II) is greater than the expected value E, the composition containing component (I) and composition (II) should exert a synergistic effect.

[4] = Zymoseptoria tritici, read-out: growth inhibition rate
[5] = component (I) alone, 0.0063 ppm
[6] = Table 15, component (II) alone (component (I): None): Azoxystrobin 0.0001, Inpyrfluxam 0.000025, Chlorothalonil 0.0063, Difenoconazole 0.000025, Cyproconazole 0.000025, Tebuconazole 0.000025, Trifloxystrobin 0.0001, Pyraclostrobin 0.0001, Fluazinam 0.0063, Fluxapyroxad 0.000025, Prothioconazole 0.000025, Florylpicoxamid 0.0001, Benzovindiflupyr 0.000025, Mancozeb 0.0063 ppm
[7] = Table 18, component (II) alone (component (I): None): Azoxystrobin 0.0001, Inpyrfluxam 0.000025, Chlorothalonil 0.0063, Difenoconazole 0.000025, Cyproconazole 0.000025, Tebuconazole 0.000025, Trifloxystrobin 0.0001, Pyraclostrobin 0.0001, Fluazinam 0.0063, Fluxapyroxad 0.000025, Prothioconazole 0.000025, Florylpicoxamid 0.0001, Benzovindiflupyr 0.000025, Mancozeb 0.0063 ppm
[8] = Zymoseptoria tritici, component (II) alone, 0.02 ppm, read-out: growth inhibition rate
[9] = Zymoseptoria tritici, component (II) alone, 0.25 ppm, read-out: growth inhibition rate
[10] = Table 14, component (II) alone (component (I): None): Inpyrfluxam 0.00025, Chlorothalonil 0.006, Thiophanate-methyl 0.0001, Tebuconazole 0.000025, Trifloxystrobin 0.0001, Fluazinam 0.006, Prothioconazole 0.000025, Florylpicoxamid 0.0001, Metominostrobin 0.0004 ppm
[11] = Table 16, component (II) alone (component (I): None): Inpyrfluxam 0.000025, Chlorothalonil 0.006, Thiophanate-methyl 0.0001, Tebuconazole 0.000025, Trifloxystrobin 0.0001, Fluazinam 0.006, Prothioconazole 0.000025, Florylpicoxamid 0.0001, Metominostrobin 0.0004 ppm
[12] = Table 17, component (II) alone (component (I): None): Inpyrfluxam 0.000026, Chlorothalonil 0.02, Thiophanate-methyl 0.0004, Tebuconazole 0.0001, Trifloxystrobin 0.0001, Fluazinam 0.006, Prothioconazole 0.000025, Florylpicoxamid 0.0001, Metominostrobin 0.0004 ppm

N#CCON=C1CN(C(=O)Cc2ccc(-c3noc(C(F)(F)F)n3)cc2)C1 [Compound 3]
inhibition at 6.3 ppm [1, 4]: 32% | inhibition at 12.5 ppm [1, 4]: 41% | inhibition at 25 ppm [1, 4]: 42% | inhibition at 50 ppm [1, 4]: 44% | inhibition at 100 ppm [1, 4]: 49% | inhibition at 0.025 ppm ([2]; Compound 3 alone): 26% | inhibition at 0.1 ppm ([2]; Compound 3 alone): 9% | inhibition at 0.4 ppm ([2]; Compound 3 alone): 84% | control value [3, 5]: 12% | control value ([3]; component (I) alone, 0.025 ppm): 22% | control value ([3]; component (I) alone, 0.1 ppm): 35% | control value ([3]; component (I) alone, 0.4 ppm): 85%

CCON=C1CN(C(=O)C(OC)c2ccc(-c3noc(C(F)(F)F)n3)cc2)C1 (centres unmarked) [Compound 5]
inhibition at 6.3 ppm [1, 4]: 61% | inhibition at 12.5 ppm [1, 4]: 68% | inhibition at 25 ppm [1, 4]: 68% | inhibition at 50 ppm [1, 4]: 64% | inhibition at 100 ppm [1, 4]: 72% | inhibition at 0.025 ppm ([2]; Compound 5 alone): 4% | inhibition at 0.1 ppm ([2]; Compound 5 alone): 76% | inhibition at 0.4 ppm ([2]; Compound 5 alone): 90% | control value [3, 5]: 7% | control value ([3]; component (I) alone, 0.025 ppm): 18% | control value ([3]; component (I) alone, 0.1 ppm): 46% | control value ([3]; component (I) alone, 0.4 ppm): 90%

Cn1cc(C(=O)Nc2ccccc2-c2cc(F)c(F)c(F)c2)c(C(F)F)n1 [Fluxapyroxad, fluxapyroxad]
growth inhibition rate ([1]; component (II) alone, 0.001 ppm): 32% | growth inhibition rate ([1]; component (II) alone, 0.02 ppm): 63% | growth inhibition rate ([1]; component (II) alone, 1 ppm): 86% | control value [3, 6]: 0% | control value [3, 7]: 75%

Cc1nc2c(F)c(F)ccc2cc1Oc1cccc(F)c1C(C)(C)O [Ipflufenoquin, ipflufenoquin, reference compound]
growth inhibition rate ([1]; component (II) alone, 0.06 ppm): 6% | growth inhibition rate ([1]; component (II) alone, 0.25 ppm): 6% | growth inhibition rate ([1]; component (II) alone, 1 ppm): 22% | growth inhibition rate ([2]; Table 19, component (II) alone (component (I): None): Ipflufenoquin 0.000026, Iminoctadine trialbesilate 0.0032, Cyflufenamid 10, Cyprodinil 0.00013, Potassium bicarbonate 0.08, Thiophanate-methyl 0.08, Picarbutrazox 0.016, Fludioxonil 0.0032, Florylpicoxamid 0.0032, Metyltetraprole 0.08, Mefentrifluconazole 0.4 ppm): 0% | growth inhibition rate ([2]; Table 20, component (II) alone (component (I): None): Ipflufenoquin 0.00064, Iminoctadine trialbesilate 0.0032, Cyflufenamid 10, Cyprodinil 0.00013, Potassium bicarbonate 0.08, Thiophanate-methyl 0.4, Picarbutrazox 0.016, Fludioxonil 0.0032, Florylpicoxamid 0.0032, Metyltetraprole 0.08, Mefentrifluconazole 0.4 ppm): 47% | growth inhibition rate ([2]; Table 21, component (II) alone (component (I): None): Ipflufenoquin 0.00064, Iminoctadine trialbesilate 0.0032, Cyflufenamid 10, Cyprodinil 0.00013, Potassium bicarbonate 0.08, Thiophanate-methyl 0.4, Picarbutrazox 0.00064, Fludioxonil 0.0032, Florylpicoxamid 0.0032, Metyltetraprole 0.08, Mefentrifluconazole 0.4 ppm): 47% | growth inhibition rate ([2]; Table 22, component (II) alone (component (I): None): Ipflufenoquin 0.00064, Iminoctadine trialbesilate 0.0032, Cyflufenamid 10, Cyprodinil 0.00013, Potassium bicarbonate 0.08, Thiophanate-methyl 0.4, Picarbutrazox 0.00064, Fludioxonil 0.0032, Florylpicoxamid 0.0032, Metyltetraprole 0.08, Mefentrifluconazole 0.4 ppm): 47% | growth inhibition rate ([2]; Table 23, component (II) alone (component (I): None): Ipflufenoquin 0.00064, Iminoctadine trialbesilate 0.0032, Cyflufenamid 10, Cyprodinil 0.000026, Potassium bicarbonate 0.08, Thiophanate-methyl 0.4, Picarbutrazox 0.00064, Fludioxonil 0.00064, Florylpicoxamid 0.0032, Metyltetraprole 0.08, Mefentrifluconazole 0.4 ppm): 47% | growth inhibition rate ([2]; Table 24, component (II) alone (component (I): None): Ipflufenoquin 0.00064, Iminoctadine trialbesilate 0.0032, Cyflufenamid 10, Cyprodinil 0.00013, Potassium bicarbonate 0.08, Thiophanate-methyl 0.4, Picarbutrazox 0.00064, Fludioxonil 0.00013, Florylpicoxamid 0.0032, Metyltetraprole 0.08, Mefentrifluconazole 0.4 ppm): 47%

OC(Cc1ccccc1Cl)(Cn1nc[nH]c1=S)C1(Cl)CC1 (centres unmarked) [Prothioconazole, prothioconazole, reference compound]
inhibition at 0.02 ppm [1, 8]: 10% | inhibition at 0.25 ppm [1, 9]: 7% | inhibition at 1 ppm ([1]; Zymoseptoria tritici, component (II) alone, 1 ppm, read-out: growth inhibition rate): 8% | control value [3, 10]: 44% | control value [3, 6]: 33% | control value [3, 11]: 44% | control value [3, 12]: 44% | control value [3, 7]: 50%

COC(=O)N(OC)c1ccccc1COc1ccn(-c2ccc(Cl)cc2)n1 [Pyraclostrobin, pyraclostrobin, reference compound]
inhibition at 0.02 ppm [1, 8]: 24% | inhibition at 0.25 ppm [1, 9]: 86% | control value [3, 6]: 33% | control value [3, 7]: 0%

CC(C)(C)C(O)(CCc1ccc(Cl)cc1)Cn1cncn1 (centres unmarked) [Tebuconazole, tebuconazole, reference compound]
inhibition at 0.016 ppm ([1]; Zymoseptoria tritici, component (II) alone, 0.016 ppm, read-out: growth inhibition rate): 0% | inhibition at 0.063 ppm ([1]; Zymoseptoria tritici, component (II) alone, 0.063 ppm, read-out: growth inhibition rate): 33% | inhibition at 64 ppm ([1]; Zymoseptoria tritici, component (II) alone, 64 ppm, read-out: growth inhibition rate): 76% | control value [3, 10]: 44% | control value [3, 6]: 33% | control value [3, 11]: 44% | control value [3, 12]: 86% | control value [3, 7]: 33%

CON=C(C(=O)OC)c1ccccc1CON=C(C)c1cccc(C(F)(F)F)c1 [Trifloxystrobin, trifloxystrobin, reference compound]
inhibition at 0.25 ppm [1, 9]: 21% | control value [3, 10]: 16% | control value [3, 6]: 0% | control value [3, 11]: 16% | control value [3, 12]: 16% | control value [3, 7]: 75% | control value ([3]; component (II) alone, 0.0004 ppm): 50%

inpyrfluxam [reference compound]
growth inhibition rate ([1]; component (II) alone, 0.01 ppm): 24% | growth inhibition rate ([1]; component (II) alone, 0.04 ppm): 49% | control value [3, 10]: 16% | control value [3, 6]: 50% | control value [3, 11]: 16% | control value [3, 12]: 16% | control value [3, 7]: 50%

mancozeb
growth inhibition rate ([1]; component (II) alone, 0.004 ppm): 9% | growth inhibition rate ([1]; component (II) alone, 0.02 ppm): 19% | growth inhibition rate ([1]; component (II) alone, 0.06 ppm): 19% | control value [3, 6]: 0% | control value [3, 7]: 0%
